From patent US10485785B2, “Method for producing fine powder and the fine powder produced by the same” (Moriroku Chemicals Company, Ltd., priority 2012, dated 2019)

Experiments:
Assay type in all cases: physicochemical
[1] = particle size distribution by laser diffraction (dry and wet method)
Procedure: The pulverized particles were dispersed by compressed air (0.4 MPa) and then, the dry particle size distribution was measured by a laser diffraction apparatus for measuring particle size distribution (LMS-30, SEISHIN ENTERPRISE CO., LTD.). On the other hand, the pulverized particles were dispersed in purified water by ultrasonic dispersion (30 seconds) and then, the wet particle size distribution was measured by a laser diffraction apparatus for measuring particle size distribution (SALD-2100, SHIMADZU CORPORATION). (3) Crystalline Properties The crystalline states of the bulk powder and the pulverized particles were measured by a X-ray powder diffraction apparatus (RAD-2VC, Rigaku Corporation) and a differential scanning calorimeters (DSC-60, SHIMADZU CORPORATION). […] As stated above, the dry method particle size distribution was measured by the laser diffraction scattering method (Dry method), while the wet method particle size distribution was measured by the laser diffraction method (Wet method). FIG. 32 represents the particle distribution of the bulk powder of phenytoin (OriB), the particle distribution of the phenytoin (Jet) pulverized by the dry method jet mill, and the particle distribution of the phenytoin (LN2) pulverized by the ultra low temperature medium grinding apparatus (LN2 bead mill) according to the present invention, wherein all the particle distributions were the results measured by the aforementioned dry method (Dry method). FIG. 33 represents the particle distribution of the bulk powder of phenytoin (OriB), the particle distribution of the phenytoin (Jet) pulverized by the dry method jet mill, and the particle distribution of the phenytoin (LN2) pulverized by the ultra low temperature medium grinding apparatus (LN2 bead mill) according to the present invention, wherein all the particle distribution were the results measured by the aforementioned wet method (Wet method). […]

[2] = crystalline properties by powder X-ray diffractometry and differential scanning calorimetry
Procedure: The pulverized particles were dispersed by compressed air (0.4 MPa) and then, the dry particle size distribution was measured by a laser diffraction apparatus for measuring particle size distribution (LMS-30, SEISHIN ENTERPRISE CO., LTD.). On the other hand, the pulverized particles were dispersed in purified water by ultrasonic dispersion (30 seconds) and then, the wet particle size distribution was measured by a laser diffraction apparatus for measuring particle size distribution (SALD-2100, SHIMADZU CORPORATION). (3) Crystalline Properties The crystalline states of the bulk powder and the pulverized particles were measured by a X-ray powder diffraction apparatus (RAD-2VC, Rigaku Corporation) and a differential scanning calorimeters (DSC-60, SHIMADZU CORPORATION). […] FIG. 34 represents the results of powder X-ray diffractometry (XRPD) of the original bulk of phenytoin (OriB), the phenytoin (Jet) pulverized by the dry method jet mill, and the phenytoin (LN2) pulverized by the ultra low temperature medium grinding apparatus (LN2 bead mill) according to the present invention, which were measured by a powder X-ray diffractometry device (RAD-2VC, Rigaku Corporation). […]

[3] = dissolution test, pharmacopoeia second law (paddle method); details: 66.7 mg sample suspended in water with 0.1%(w/v) Tween80, 900 mL test liquid, 75 rpm
Procedure: In order to verify the degree of improvement of solubility of the concurrently pulverized materials, which was obtained by concurrently pulverizing the test compound (phenytoin) made by example 5 and the additive (Hypromellose-Acetate-Succinate (HPMCAS)), the dissolution test was carried out as follows. […] Then the suspension was put into a 900 mL test liquid (50 Mm phosphate buffer solution, pH6.8) and examined under the condition of 75 rpm in compliance with the pharmacopoeia second law (paddle method). A sample consisting of only a compound (phenytoin) to be pulverized was individually pulverized under the conditions shown in Example 5 to obtain a pulverized material, which was used to carry out the dissolution test as follows. A 66.7 mg sample of the pulverized material was suspended in the water, which contains a 0.1%(w/v) Tween80, to obtain a suspension. Then the suspension was put into the 900 mL test liquid and examined under the condition of 75 rpm in compliance with the pharmacopoeia second law (paddle method). […] Before the dissolution test of reference example 1 was carried out, the pulverized material prepared in reference example 1 was mixed with commercially available additives (lactose and L-HPC) in a vessel by hand. Then, the dissolution test was performed as for a mixture of the pulverized material and the additives.

[4] = observation by scanning electron microscope (SEM); details: pulverized by the LN2 bead mill, SEM FIG. 2(B)
Source text: The exterior appearance of pulverized particles on which platinum is deposited was observed by a scanning electron microscope (JSM-6060, JEOL LTD.).

SMILES: O=C1NC(=O)C(c2ccccc2)(c2ccccc2)N1 [phenytoin (LN2), phenytoin]
- rate of submicron size particles relative to particles pulverized by the dry method [1]: three and a half times
- percentage of the mass consisting of particles of 1 μm or below (rate of submicron size particles) ([1]; measured up to): up to 32%
- crystalline transformation / crystalline descent ([2]; XRPD and DSC, before and after pulverization): crystalline descent was not found

SMILES: O=C1NC(=O)C(c2ccccc2)(c2ccccc2)N1 [phenytoin (Jet), phenytoin]
- degree of crystallinity ([2]; from ΔH value versus original bulk, DSC): 81%

SMILES: O=C1NC(=O)C(c2ccccc2)(c2ccccc2)N1 [Reference example 1, phenytoin]
- solubility of the pulverized particles in dissolution test [3]: not improved, or rather became worse
- particle diameter after individual pulverization ([1]; conditions of Example 5): ≤ 0.1 μm

SMILES: O=C1NC(=O)C(c2ccccc2)(c2ccccc2)N1 [phenytoin]
- dimension of the majority of the particles [4]: ≤ 1 μm
